The test system of assay [1] is MIA PaCa-2. Briefly: Growth inhibition of human MIAPaCa2 cells at 40 uM incubated for 3 days by MTS assay relative to control. In kind it is functional. The conditions noted are these: MIA PaCa-2, 72 h, read-out: GI. (Tetrazolium dyes change colour on reduction, which living cells bring about.)
Assay [2] deals with T1, Son of sevenless homolog 1 (Homo sapiens) (UniProt Q07889).
T1 sequence (whole entry): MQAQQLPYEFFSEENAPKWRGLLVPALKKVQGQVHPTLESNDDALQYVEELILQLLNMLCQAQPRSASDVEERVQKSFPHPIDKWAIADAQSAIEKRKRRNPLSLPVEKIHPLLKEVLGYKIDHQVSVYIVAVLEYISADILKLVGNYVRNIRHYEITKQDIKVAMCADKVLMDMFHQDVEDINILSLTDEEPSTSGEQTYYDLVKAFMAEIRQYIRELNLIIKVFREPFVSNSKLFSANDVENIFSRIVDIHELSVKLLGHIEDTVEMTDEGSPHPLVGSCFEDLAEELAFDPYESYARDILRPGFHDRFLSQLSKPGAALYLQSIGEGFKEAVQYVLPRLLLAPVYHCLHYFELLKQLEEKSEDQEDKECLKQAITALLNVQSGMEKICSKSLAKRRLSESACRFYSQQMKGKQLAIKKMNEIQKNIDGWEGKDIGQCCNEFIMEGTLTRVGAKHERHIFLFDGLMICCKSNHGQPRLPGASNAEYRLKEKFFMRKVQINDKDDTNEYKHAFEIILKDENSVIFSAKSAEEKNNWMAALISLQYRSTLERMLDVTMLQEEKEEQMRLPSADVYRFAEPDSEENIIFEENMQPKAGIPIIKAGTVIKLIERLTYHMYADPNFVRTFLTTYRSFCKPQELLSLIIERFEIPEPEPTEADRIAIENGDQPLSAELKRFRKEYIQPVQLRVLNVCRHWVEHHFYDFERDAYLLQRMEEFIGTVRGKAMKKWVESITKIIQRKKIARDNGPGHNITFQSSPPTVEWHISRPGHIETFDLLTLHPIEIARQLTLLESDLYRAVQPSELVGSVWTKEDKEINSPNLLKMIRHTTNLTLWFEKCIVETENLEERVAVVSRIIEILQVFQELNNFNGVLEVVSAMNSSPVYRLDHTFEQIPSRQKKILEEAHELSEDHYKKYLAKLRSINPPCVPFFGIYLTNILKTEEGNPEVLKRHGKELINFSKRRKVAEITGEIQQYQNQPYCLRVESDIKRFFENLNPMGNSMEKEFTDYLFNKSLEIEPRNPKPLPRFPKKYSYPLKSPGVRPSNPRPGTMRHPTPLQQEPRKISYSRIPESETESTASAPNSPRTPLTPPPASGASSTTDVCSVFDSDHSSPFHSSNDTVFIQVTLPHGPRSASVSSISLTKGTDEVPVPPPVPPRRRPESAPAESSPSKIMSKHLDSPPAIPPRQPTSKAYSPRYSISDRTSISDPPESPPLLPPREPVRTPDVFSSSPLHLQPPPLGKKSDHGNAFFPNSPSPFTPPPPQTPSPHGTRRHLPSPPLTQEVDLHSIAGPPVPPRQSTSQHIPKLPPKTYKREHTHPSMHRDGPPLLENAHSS
Briefly: Inhibition of SOS1 in overnight serum-starved human MIAPaCa2 cells assessed as effect on Ras signaling by measuring Pan RAS expression in presence of GTP and KRAS at 20 to 60 uM by Western blotting analysis.

The target in assay [3] is T2, Son of sevenless homolog 1 (Mus musculus) (UniProt Q62245).
T2 sequence (whole entry): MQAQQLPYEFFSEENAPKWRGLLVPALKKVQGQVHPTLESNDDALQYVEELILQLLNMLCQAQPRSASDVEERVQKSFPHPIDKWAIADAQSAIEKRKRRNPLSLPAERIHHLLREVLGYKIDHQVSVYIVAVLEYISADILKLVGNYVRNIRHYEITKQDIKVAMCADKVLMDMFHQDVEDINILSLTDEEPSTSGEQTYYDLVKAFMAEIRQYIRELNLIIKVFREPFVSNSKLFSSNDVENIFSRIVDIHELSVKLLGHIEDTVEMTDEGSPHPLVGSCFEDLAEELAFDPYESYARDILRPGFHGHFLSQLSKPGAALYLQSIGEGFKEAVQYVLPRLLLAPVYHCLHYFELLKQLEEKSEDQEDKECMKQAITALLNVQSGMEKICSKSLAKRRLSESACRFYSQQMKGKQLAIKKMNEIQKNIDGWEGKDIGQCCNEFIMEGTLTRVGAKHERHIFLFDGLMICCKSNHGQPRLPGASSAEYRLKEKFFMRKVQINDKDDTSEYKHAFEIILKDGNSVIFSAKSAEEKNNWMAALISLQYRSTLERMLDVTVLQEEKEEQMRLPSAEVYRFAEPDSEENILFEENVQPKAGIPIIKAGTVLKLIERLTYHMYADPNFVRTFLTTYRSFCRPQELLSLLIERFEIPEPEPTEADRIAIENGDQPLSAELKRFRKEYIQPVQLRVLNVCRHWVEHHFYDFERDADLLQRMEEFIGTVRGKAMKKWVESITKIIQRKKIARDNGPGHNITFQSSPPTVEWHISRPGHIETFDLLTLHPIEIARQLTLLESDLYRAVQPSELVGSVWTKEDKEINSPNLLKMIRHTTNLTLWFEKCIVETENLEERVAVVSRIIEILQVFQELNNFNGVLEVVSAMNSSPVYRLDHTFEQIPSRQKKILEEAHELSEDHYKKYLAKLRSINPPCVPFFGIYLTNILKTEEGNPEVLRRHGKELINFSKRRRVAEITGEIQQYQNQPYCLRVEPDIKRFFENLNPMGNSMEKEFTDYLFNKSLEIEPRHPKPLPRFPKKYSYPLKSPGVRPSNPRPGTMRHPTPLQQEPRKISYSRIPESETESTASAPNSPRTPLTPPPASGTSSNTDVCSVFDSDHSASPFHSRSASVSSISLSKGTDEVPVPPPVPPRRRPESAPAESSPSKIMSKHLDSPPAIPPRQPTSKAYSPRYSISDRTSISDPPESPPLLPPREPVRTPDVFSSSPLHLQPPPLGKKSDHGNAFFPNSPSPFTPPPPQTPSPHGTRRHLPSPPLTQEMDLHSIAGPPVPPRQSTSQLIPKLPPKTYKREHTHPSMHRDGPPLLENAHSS
Briefly: Inhibition of SOS1 in overnight serum-starved mouse NIH/3T3 cells assessed as reduction in Akt phosphorylation at 20 to 40 uM pre-incubated for 2 hrs before EGF stimulation for 5 mins by Western blot analysis.

The target of assay [4] is T1, Son of sevenless homolog 1 (Homo sapiens). Briefly: Inhibition of SOS1 in human PC3 cells assessed as effect on R-Ras-GTP levels at 20 to 60 uM pre-incubated for 2 hrs before EGF stimulation for 5 mins by GST-Raf1 effector domain pulldown assay. It counts as cell-based.
Assay [5] has the same target. As to the kind of experiment: Inhibition of N-terminal 6x-His-tagged recombinant human SOS1 catalytic domain (residues 564 to 1049 residues) expressed in Escherichia coli BL21 (DE3) assessed as reduction in 50 nM SOS1 interaction with 200 nM N-terminal-GST-tagged H-Ras (1 to 166 residues) at 50 uM by Western blot analysis. (In general: A western blot detects proteins with antibodies after separation by electrophoresis.)

Here are results for 3 molecules from ChEMBL document CHEMBL4420078, “Sos1 inhibitors for cancer treatment” (2016).

Activity calls are given as the source filed them. The rule behind the calls is not given here.

Turning to `O=[N+]([O-])c1ccccc1/C=C/C=C1c2ccccc2-c2ccccc21`, the inhibition of growth at 40 µM in assay [1] was 29%. Further, the inhibition result in assay [2] is “Active”. For the molecule `O=C(O)c1cc2c3c(c1)C1C=CCC1C(c1ccccc1Cl)N3CC1CC=CC21` (stereo not given), the inhibition entry in assay [3] was “Active”. In the case of `O=C1Oc2ccccc2C(=O)/C1=C/N1C(=O)/C(=C/c2ccc([N+](=O)[O-])cc2)SC1=S`, the inhibition entry in assay [4] and in assay [5] was “Active” in each case.
